Measurements from patent US10670605B2, “Cysteine reactive probes and uses thereof” (The Scripps Research Institute, priority 2015, dated 2020).
Each block holds one compound with its values, some of them ahead of it.

What was measured:
[1] = biological target: O00541_C272 (Homo sapiens, UniProt O00541); assay: Competitive isoTOP-ABPP, cell lysates; type: binding; conditions: 500 μm in-vitro ramos
[2] = biological target: T1, ERCC3 C342 (P19447) (Homo sapiens, UniProt P19447); assay: Competitive isoTOP-ABPP, cell lysates; type: binding; conditions: for isoTOP-ABPP reactivity ratio, P19447_C342 / isoTOP-ABPP reactivity profile ratio, P19447_C342: 500 μm, in-vitro_ramos_231
T1 sequence (P19447 1-782): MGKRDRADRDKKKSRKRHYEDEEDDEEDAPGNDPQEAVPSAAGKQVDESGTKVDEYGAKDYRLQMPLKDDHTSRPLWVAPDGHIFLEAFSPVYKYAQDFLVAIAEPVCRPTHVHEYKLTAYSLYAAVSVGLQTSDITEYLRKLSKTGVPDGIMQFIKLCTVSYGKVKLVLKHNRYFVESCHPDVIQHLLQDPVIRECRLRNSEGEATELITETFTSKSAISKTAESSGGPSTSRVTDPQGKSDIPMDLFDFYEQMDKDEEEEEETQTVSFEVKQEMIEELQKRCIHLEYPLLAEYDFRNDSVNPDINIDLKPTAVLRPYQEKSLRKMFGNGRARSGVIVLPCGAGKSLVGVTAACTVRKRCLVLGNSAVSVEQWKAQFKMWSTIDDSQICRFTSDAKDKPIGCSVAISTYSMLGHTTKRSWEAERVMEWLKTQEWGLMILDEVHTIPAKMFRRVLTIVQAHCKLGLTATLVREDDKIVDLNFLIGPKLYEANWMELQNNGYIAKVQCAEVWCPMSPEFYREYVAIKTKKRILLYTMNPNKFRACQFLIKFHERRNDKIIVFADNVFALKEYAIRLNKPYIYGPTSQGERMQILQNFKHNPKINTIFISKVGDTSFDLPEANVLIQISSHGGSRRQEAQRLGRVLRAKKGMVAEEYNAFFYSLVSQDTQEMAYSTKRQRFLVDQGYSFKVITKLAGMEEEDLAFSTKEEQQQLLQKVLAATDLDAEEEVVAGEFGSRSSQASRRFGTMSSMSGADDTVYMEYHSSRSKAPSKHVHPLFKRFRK

[3] = biological target: T2, O114933_C98 (Homo sapiens, UniProt O14933); assay: Competitive isoTOP-ABPP, cell lysates; type: binding; conditions: 500 μm in-vitro ramos
[4] = biological target: T3, cysteines in MDA-MB-231 and Ramos cells (Homo sapiens, UniProt P42166); assay: Competitive isoTOP-ABPP in situ (fragment-treated cells); type: cell-based; conditions: 200 μM, insitu
T3 sequence (P42166 1-694): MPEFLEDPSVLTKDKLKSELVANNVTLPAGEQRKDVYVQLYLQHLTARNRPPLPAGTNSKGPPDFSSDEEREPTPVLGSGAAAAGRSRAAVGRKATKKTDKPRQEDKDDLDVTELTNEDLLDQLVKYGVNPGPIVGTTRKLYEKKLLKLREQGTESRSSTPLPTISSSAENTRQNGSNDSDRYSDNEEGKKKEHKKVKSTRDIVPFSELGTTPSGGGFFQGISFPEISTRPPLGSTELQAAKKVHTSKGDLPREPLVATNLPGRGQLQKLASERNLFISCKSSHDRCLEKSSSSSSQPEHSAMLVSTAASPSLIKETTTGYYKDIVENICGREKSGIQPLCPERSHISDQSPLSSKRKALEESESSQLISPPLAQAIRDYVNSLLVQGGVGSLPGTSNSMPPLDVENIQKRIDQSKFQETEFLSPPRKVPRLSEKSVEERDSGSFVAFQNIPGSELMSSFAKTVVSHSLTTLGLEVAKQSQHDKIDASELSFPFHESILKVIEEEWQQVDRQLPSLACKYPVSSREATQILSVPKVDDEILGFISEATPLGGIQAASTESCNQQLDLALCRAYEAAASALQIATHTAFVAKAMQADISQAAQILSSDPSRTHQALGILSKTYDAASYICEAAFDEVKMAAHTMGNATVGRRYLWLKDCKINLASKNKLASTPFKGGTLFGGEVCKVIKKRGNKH

[5] = biological target: T2, O114933_C98; assay: Competitive isoTOP-ABPP, cell lysates; type: binding; conditions: 500 μm
[6] = biological target: T4, cysteines in MDA-MB-231 and Ramos cells (Homo sapiens, UniProt P25205); assay: Competitive isoTOP-ABPP in situ (fragment-treated cells); type: cell-based; conditions: 200 μM, insitu, 231
T4 sequence (P25205 1-808): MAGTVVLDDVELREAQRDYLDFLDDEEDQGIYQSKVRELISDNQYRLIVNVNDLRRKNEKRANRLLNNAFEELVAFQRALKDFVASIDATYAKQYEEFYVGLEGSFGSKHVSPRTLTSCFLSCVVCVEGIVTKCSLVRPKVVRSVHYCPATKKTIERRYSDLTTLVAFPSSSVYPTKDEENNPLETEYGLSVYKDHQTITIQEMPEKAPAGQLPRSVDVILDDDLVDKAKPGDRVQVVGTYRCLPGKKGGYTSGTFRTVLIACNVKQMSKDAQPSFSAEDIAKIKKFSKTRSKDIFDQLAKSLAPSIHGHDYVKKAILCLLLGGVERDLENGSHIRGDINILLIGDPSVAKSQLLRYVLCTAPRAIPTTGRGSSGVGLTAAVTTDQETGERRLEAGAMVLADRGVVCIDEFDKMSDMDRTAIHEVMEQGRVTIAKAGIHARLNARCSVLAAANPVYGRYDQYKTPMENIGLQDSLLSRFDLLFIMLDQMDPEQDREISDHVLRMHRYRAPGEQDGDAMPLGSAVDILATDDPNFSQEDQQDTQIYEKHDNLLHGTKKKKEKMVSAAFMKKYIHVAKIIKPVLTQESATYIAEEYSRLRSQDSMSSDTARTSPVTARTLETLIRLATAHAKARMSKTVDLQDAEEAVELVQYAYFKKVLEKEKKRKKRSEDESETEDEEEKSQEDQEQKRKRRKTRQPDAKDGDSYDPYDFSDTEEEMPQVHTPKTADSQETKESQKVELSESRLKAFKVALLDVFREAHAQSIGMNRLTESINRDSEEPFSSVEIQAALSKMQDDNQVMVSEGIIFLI

T2 sequence (O14933 whole entry, the tested form may be a part): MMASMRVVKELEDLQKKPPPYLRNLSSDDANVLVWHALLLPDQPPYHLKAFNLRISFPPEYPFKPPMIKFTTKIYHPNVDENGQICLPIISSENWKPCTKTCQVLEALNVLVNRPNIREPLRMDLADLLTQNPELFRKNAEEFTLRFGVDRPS
Chain of O00541_C272 (O00541 whole entry, looked up): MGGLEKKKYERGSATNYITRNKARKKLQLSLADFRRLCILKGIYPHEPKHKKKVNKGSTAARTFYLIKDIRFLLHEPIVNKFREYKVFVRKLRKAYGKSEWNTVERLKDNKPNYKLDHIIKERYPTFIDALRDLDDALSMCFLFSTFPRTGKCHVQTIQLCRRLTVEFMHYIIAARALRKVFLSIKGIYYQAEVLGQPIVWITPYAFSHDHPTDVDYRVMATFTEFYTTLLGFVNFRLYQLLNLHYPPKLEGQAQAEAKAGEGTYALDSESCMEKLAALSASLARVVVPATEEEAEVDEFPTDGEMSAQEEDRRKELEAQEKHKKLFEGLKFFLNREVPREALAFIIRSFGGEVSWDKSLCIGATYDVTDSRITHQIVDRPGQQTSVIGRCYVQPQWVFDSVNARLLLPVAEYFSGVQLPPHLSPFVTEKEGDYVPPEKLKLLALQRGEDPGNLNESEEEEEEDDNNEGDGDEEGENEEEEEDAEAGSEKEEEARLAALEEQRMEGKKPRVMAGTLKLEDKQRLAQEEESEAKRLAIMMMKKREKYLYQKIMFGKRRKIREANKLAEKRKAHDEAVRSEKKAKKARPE

SMILES: CC(Br)C(=O)Nc1cc(C(F)(F)F)cc(C(F)(F)F)c1 (stereo not shown) [compound 24]
isoTOP-ABPP ratio (reactivity profile), O00541_C272 [1]: 2.6

SMILES: CC(Cl)C(=O)Nc1cc(C(F)(F)F)cc(C(F)(F)F)c1 (stereo not shown) [compound 25]
isoTOP-ABPP ratio (reactivity profile), P19447_C342 ([2]; 500 μm in-vitro ramos_231): 0.9

SMILES: O=C(/C=C/c1ccccc1)Nc1cc(C(F)(F)F)cc(C(F)(F)F)c1 [compound 26]
isoTOP-ABPP ratio (reactivity profile), O114933_C98 [3]: 1.0

SMILES: COc1ccccc1OCCNC(=O)CCl [compound 28]
isoTOP-ABPP ratio P42166_C561 [4]; 231: 1.1
isoTOP-ABPP ratio (reactivity profile), O114933_C98 [3]: 1.2

SMILES: CC(C)(C)c1cc(NC(=O)CCl)on1 [compound 32]
isoTOP-ABPP reactivity ratio, O114933_C98 ([5]; in-vitro_ramos): 4.6
isoTOP-ABPP reactivity ratio, O114933_C98 ([5]; in-vitro_ramos_231): 13.8

SMILES: C=CC(=O)Nc1cc(F)c(N2CCN(C(=O)OC(C)(C)C)CC2)c(F)c1 [compound 38]
isoTOP-ABPP reactivity ratio, O114933_C98 ([5]; in-vitro_ramos): 1.7
isoTOP-ABPP reactivity ratio, O114933_C98 ([5]; in-vitro_ramos_231): 1.6
isoTOP-ABPP reactivity ratio, P19447_C342 [2]: 1.3
isoTOP-ABPP ratio P42166_C518 [4]; 231: 2.2
isoTOP-ABPP ratio P42166_C561 [4]; 231: 20.0
isoTOP-ABPP ratio P42166_C684 [4]; 231: 3.0
isoTOP-ABPP ratio P25205_C119 [6]: 0.9

SMILES: C=CC(=O)Nc1cc(C)c(Br)cc1C [compound 40]
isoTOP-ABPP reactivity ratio, O114933_C98 ([5]; in-vitro_ramos): 1.3

SMILES: C=CC(=O)N(c1ccccc1)C1CCCCC1 [compound 46]
isoTOP-ABPP reactivity profile ratio, P19447_C342 [2]: 1.0

SMILES: O=C(CCl)Nc1cccc2ncccc12 [compound 51]
isoTOP-ABPP reactivity profile ratio, P19447_C342 [2]: 1.4
isoTOP-ABPP ratio P42166_C341 [4]; 231: 1.2
isoTOP-ABPP ratio P42166_C561 [4]; 231: 1.3
isoTOP-ABPP ratio P42166_C684 [4]; 231: 1.2
isoTOP-ABPP ratio P25205_C119 [6]: 2.6

SMILES: O=C(CCl)Nc1ccc(-c2ccccc2)cc1 [compound 52]
isoTOP-ABPP reactivity profile ratio, P19447_C342 [2]: 1.0

Results, then the compound that gave them:

isoTOP-ABPP reactivity ratio, O114933_C98 ([5]; in-vitro_ramos): 2.1
isoTOP-ABPP ratio (reactivity profile), P19447_C342 ([2]; 500 μm in-vitro ramos): 1.3
isoTOP-ABPP ratio (reactivity profile), O114933_C98 [3]: 1.3
SMILES: CCN(CC)c1ccc(S(N)(=O)=O)cc1NC(=O)CCl [compound 30]

isoTOP-ABPP ratio P42166_C561 [4]; 231: 1.3
isoTOP-ABPP ratio P42166_C341 ([4]; ramos): 2.0
isoTOP-ABPP ratio P42166_C561 ([4]; ramos): 2.5
isoTOP-ABPP ratio P42166_C684 ([4]; ramos): 3.3
isoTOP-ABPP ratio P25205_C119 [6]: 0.5
SMILES: C=CC(=O)N(Cc1cccnc1)c1cc(C(F)(F)F)cc(C(F)(F)F)c1 [compound 31]

isoTOP-ABPP reactivity ratio, O114933_C98 ([5]; in-vitro_ramos_231): 0.8
SMILES: O=C(CCl)N(Cc1ccc(F)cc1)C12CC3CC(CC(C3)C1)C2 [compound 34]

isoTOP-ABPP reactivity ratio, O114933_C98 ([5]; in-vitro_ramos): 1.1
isoTOP-ABPP reactivity ratio, O114933_C98 ([5]; in-vitro_ramos_231): 1.2
isoTOP-ABPP reactivity ratio, P19447_C342 [2]: 1.1
isoTOP-ABPP ratio P42166_C341 [4]; 231: 0.5
isoTOP-ABPP ratio P42166_C561 [4]; 231: 0.7
isoTOP-ABPP ratio P25205_C119 [6]: 0.9
SMILES: Cc1ccc(C=C(C#N)C(=O)NCCN2CCOCC2)cc1 [compound 41]

isoTOP-ABPP ratio P42166_C561 [4]; 231: 20.0
isoTOP-ABPP ratio P42166_C684 [4]; 231: 6.8
isoTOP-ABPP ratio P25205_C119 [6]: 6.2
SMILES: CC1CCc2ccccc2N1C(=O)CCl (stereo not shown) [compound 45]
